Laboratory results taken from US10730870B2, “Compounds and methods for the enhanced degradation of targeted proteins” (Arvinas, Inc., priority 2015, dated 2020).

Molecular target: VHL (Homo sapiens (Human), UniProt P40337)
Test: VHL fluorescence polarization (FP) competition assay
Type: binding

Structure (SMILES): COc1cccc2c1C(=O)N([C@H](C(=O)N1C[C@H](O)C[C@H]1C(=O)NCc1ccc(-c3scnc3C)cc1)C(C)C)C2 [Example 15, (2S,4R)-4-hydroxy-1-((S)-2-(7-methoxy-1-oxoisoindolin-2-yl)-3-methylbutanoyl)-N-(4-(4-methylthiazol-5-yl)benzyl)pyrrolidine-2-carboxamide]
- IC50 (0.25% in DMSO): 1.22 µM
- IC50 (1% in DMSO): 24.5 µM
- IC50 (10% in DMSO): 81.9 µM

Structure (SMILES): CC(C)[C@@H](C(=O)N1C[C@H](O)C[C@H]1C(=O)NCc1ccc(-c2ccn[nH]2)cc1)N1Cc2ccccc2C1=O [Example 41, (2S,4R)—N-(4-(1H-pyrazol-5-yl)benzyl)-4-hydroxy-1-((S)-3-methyl-2-(1-oxoisoindolin-2-yl)butanoyl)pyrrolidine-2-carboxamide]
- IC50 (0.25% in DMSO): 7.28 µM
- IC50 (1% in DMSO): 1.19 µM
- IC50 (10% in DMSO): 3.05 µM

Structure (SMILES): Cc1ncsc1-c1ccc(CNC(=O)[C@@H]2C[C@@H](O)CN2C(=O)[C@H](C(C)C)N2Cc3c(F)cccc3C2=O)cc1 [Example 33, (2S,4R)-1-((S)-2-(4-fluoro-1-oxoisoindolin-2-yl)-3-methylbutanoyl)-4-hydroxy-N-(4-(4-methylthiazol-5-yl)benzyl)pyrrolidine-2-carboxamide]
- IC50 (0.25% in DMSO): 1.94 µM
- IC50 (1% in DMSO): 0.539 µM
- IC50 (10% in DMSO): 1.08 µM

Structure (SMILES): Cc1ncsc1-c1ccc(CNC(=O)[C@@H]2C[C@@H](O)CN2C(=O)[C@@H](NCCC(C)C)C2CCCC2)cc1 [Example 32, (2S,4R)-1-((S)-2-cyclopentyl-2-(isopentylamino)acetyl)-4-hydroxy-N-(4-(4-methylthiazol-5-yl)benzyl)pyrrolidine-2-carboxamide]
- IC50 (0.25% in DMSO): 2.22 µM
- IC50 (1% in DMSO): 1.15 µM
- IC50 (10% in DMSO): 3.36 µM

Structure (SMILES): CC(C)[C@@H](C(=O)N1C[C@H](O)C[C@H]1C(=O)NCc1ccc(N2CCOCC2)cc1)N1Cc2ccccc2C1=O [Example 91, (2S,4R)-4-hydroxy-1-((S)-3-methyl-2-(1-oxoisoindolin-2-yl)butanoyl)-N-(4-morpholinobenzyl)pyrrolidine-2-carboxamide]
- IC50 (1% in DMSO): > 100 µM

Structure (SMILES): COc1cccc(CCC(=O)N[C@H](C(=O)N2C[C@H](O)C[C@H]2C(=O)NCc2ccc(-c3scnc3C)cc2)C(C)(C)C)c1 [Example 77, (2S,4R)-4-hydroxy-1-((S)-2-(3-(3-methoxyphenyl)propanamido)-3,3-dimethylbutanoyl)-N-(4-(4-methylthiazol-5-yl)benzyl)pyrrolidine-2-carboxamide]
- IC50 (1% in DMSO): 0.55 µM
- IC50 (10% in DMSO): 0.349 µM

Structure (SMILES): Cc1cc(C(C)(C)C(=O)N2C[C@H](O)C[C@H]2C(=O)NCc2ccc(-c3scnc3C)cc2)on1 [Example 140, (2S,4R)-4-hydroxy-1-(2-methyl-2-(3-methylisoxazol-5-yl)propanoyl)-N-(4-(4-methylthiazol-5-yl)benzyl)pyrrolidine-2-carboxamide]
- IC50 (1% in DMSO): 157 µM

Structure (SMILES): Cc1ncsc1-c1ccc(CNC(=O)[C@@H]2C[C@@H](O)CN2C(=O)C2(N3Cc4ccccc4C3=O)CC2)cc1 [Example 49, (2S,4R)-4-hydroxy-N-(4-(4-methylthiazol-5-yl)benzyl)-1-(1-(1-oxoisoindolin-2-yl)cyclopropanecarbonyl)pyrrolidine-2-carboxamide]
- IC50 (10% in DMSO): 244 µM

Structure (SMILES): Cc1ncsc1-c1ccc(CNC(=O)[C@@H]2C[C@@H](O)CN2C(=O)[C@H](C(C)C)N2Cc3c(Cl)cccc3C2=O)cc1 [Example 68]
- IC50 (1% in DMSO): 0.972 µM
- IC50 (10% in DMSO): 0.668 µM

Structure (SMILES): COc1cccc(C(=O)N2C[C@H](O)C[C@H]2C(=O)NCc2ccc(-c3scnc3C)cc2)c1 [Example 63, (2S,4R)-4-hydroxy-1-(3-methoxybenzoyl)-N-(4-(4-methylthiazol-5-yl)benzyl)pyrrolidine-2-carboxamide]
- IC50 (1% in DMSO): 58.4 µM
- IC50 (10% in DMSO): 53 µM

Structure (SMILES): Cc1ncsc1-c1ccc(CNC(=O)[C@@H]2C[C@@H](O)CN2C(=O)C(C)(C)N2Cc3ccccc3C2=O)cc1 [Example 46, (2S,4R)-4-hydroxy-1-(2-methyl-2-(1-oxoisoindolin-2-yl)propanoyl)-N-(4-(4-methylthiazol-5-yl)benzyl)pyrrolidine-2-carboxamide]
- IC50 (1% in DMSO): 19400 µM
- IC50 (10% in DMSO): 5100 µM
